ChEMBL document CHEMBL2311402 (J Med Chem, 2013)

What was measured:
CYP3A4 = CYP3A4 (Homo sapiens, UniProt P08684); test: Inhibition of human CYP3A4 at 1 uM; assay type: ADME
Tubulin (Homo sapiens) = Tubulin (Homo sapiens) (UniProt P68371+Q9H4B7+P0DPH7+P68366+Q13509+Q71U36+P04350+Q3ZCM7+P07437+P68363+Q9BQE3+Q6PEY2+Q13885+Q9BVA1+Q9BUF5); test: Displacement of [3H]colchicine from tubulin (unknown origin) at 5 uM after 10 mins by DEAE-cellulose filter method; assay type: protein-complex assay
CYP2D6 = CYP2D6 (Homo sapiens, UniProt P10635); test: Inhibition of human CYP2D6 at 1 uM; assay type: ADME
Sequence of CYP2D6 (P10635 whole entry): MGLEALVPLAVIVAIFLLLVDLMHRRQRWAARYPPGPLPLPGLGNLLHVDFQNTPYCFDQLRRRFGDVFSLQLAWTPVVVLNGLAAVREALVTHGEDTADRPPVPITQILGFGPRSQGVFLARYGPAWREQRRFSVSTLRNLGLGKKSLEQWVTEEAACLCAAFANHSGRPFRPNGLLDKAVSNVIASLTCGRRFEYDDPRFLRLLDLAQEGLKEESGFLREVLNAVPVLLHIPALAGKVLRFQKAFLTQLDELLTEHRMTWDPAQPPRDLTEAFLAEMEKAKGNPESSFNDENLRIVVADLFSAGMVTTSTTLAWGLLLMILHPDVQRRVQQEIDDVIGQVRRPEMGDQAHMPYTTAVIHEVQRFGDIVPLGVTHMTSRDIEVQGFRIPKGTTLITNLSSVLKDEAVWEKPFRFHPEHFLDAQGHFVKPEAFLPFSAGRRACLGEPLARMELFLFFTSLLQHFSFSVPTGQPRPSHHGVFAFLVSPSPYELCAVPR

CYP1A2 = molecular target: T1, CYP1A2 (Homo sapiens, UniProt P05177); test: Inhibition of human CYP1A2 at 1 uM; assay type: ADME
T1 sequence (P05177 whole entry): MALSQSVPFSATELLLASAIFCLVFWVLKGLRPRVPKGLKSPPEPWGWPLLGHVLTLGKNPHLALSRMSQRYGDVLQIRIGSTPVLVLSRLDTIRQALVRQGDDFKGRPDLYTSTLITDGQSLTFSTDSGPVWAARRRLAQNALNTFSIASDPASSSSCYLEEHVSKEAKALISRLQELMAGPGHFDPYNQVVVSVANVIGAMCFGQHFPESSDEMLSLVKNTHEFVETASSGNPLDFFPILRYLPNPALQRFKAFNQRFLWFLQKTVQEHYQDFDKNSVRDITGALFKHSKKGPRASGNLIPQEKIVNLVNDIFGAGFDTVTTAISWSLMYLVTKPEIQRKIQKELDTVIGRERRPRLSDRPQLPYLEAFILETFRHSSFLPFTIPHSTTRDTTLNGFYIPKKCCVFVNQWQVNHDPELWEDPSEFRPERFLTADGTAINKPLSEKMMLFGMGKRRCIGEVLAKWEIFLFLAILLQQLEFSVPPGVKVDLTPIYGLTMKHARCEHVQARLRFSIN

CYP2C9 = CYP2C9 (Homo sapiens, UniProt P11712); test: Inhibition of human CYP2C9 at 1 uM; assay type: ADME
Sequence of CYP2C9 (P11712 whole entry): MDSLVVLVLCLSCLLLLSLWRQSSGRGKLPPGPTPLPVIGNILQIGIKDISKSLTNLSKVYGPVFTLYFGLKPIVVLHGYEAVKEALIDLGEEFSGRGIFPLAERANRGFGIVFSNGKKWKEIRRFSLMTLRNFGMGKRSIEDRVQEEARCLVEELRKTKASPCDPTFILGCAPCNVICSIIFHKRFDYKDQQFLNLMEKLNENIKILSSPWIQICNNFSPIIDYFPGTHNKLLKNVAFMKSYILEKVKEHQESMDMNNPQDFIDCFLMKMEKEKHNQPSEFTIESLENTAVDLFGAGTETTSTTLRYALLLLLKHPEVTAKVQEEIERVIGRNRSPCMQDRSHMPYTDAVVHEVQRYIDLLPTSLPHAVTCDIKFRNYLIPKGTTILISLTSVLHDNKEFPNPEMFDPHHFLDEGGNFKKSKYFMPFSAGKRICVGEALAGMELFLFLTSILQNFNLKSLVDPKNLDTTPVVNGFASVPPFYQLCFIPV

CYP2C19 = CYP2C19 (Homo sapiens, UniProt P33261); test: Inhibition of human CYP2C19 at 1 uM; assay type: ADME
Sequence of CYP2C19 (P33261 whole entry): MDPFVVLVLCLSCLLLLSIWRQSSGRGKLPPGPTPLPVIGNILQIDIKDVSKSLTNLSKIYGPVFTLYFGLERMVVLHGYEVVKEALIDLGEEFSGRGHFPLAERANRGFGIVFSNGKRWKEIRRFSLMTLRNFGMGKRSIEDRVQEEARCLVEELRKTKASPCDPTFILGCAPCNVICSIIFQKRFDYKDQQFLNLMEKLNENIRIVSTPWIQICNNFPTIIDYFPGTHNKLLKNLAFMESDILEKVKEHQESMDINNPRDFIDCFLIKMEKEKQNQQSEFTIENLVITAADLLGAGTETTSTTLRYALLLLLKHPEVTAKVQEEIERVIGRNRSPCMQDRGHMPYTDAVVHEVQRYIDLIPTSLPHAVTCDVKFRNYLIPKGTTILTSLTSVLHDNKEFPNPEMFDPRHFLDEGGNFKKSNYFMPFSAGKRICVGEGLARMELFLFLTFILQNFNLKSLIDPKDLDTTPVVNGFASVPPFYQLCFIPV

U-87 MG = test: Induction of apoptosis in human U87MG assessed as reduction in mitochondrial membrane potential at 30 uM after 24 hrs by JC-1 staining-based fluorescence microscopy; assay type: functional, U-87MG ATCC; design: scale not given: the % may be the effect or the level left
A549 = test: cells; conditions: Homo sapiens, A549, 48 h
Description: Cytotoxicity against human A549 cells assessed as growth inhibition after 48 hrs by MTT assay

HCT-15 = test: cells; conditions: Homo sapiens, HCT-15, 72 h
Description: Cytotoxicity against human HCT15 cells assessed as growth inhibition after 72 hrs by Celltiter-Glo luminescent assay

HeLa = test: cells; conditions: Homo sapiens, 48 h
Description: Cytotoxicity against human HeLa cells assessed as growth inhibition after 48 hrs by MTT assay

[1] = Cytotoxicity against human MESSA/DX5 cells assessed as growth inhibition after 72 hrs by Celltiter-Glo luminescent assay; assay type: functional, cell-based; conditions: MES-SA/Dx5, 72 h
HT-29 = test: cells; conditions: Homo sapiens, HT-29, 48 h
Description: Cytotoxicity against human HT-29 cells assessed as growth inhibition after 48 hrs by MTT assay

HCT-116 = test: cells; conditions: Homo sapiens, HCT-116, 72 h
Description: Cytotoxicity against human HCT116 assessed as growth inhibition after 72 hrs by Celltiter-Glo luminescent assay

NCI/ADR-RES = test: Cytotoxicity against human NCI/ADR-RES cells assessed as growth inhibition by trypan blue exclusion assay; assay type: functional, cell-based

Sequence of CYP3A4 (P08684 whole entry): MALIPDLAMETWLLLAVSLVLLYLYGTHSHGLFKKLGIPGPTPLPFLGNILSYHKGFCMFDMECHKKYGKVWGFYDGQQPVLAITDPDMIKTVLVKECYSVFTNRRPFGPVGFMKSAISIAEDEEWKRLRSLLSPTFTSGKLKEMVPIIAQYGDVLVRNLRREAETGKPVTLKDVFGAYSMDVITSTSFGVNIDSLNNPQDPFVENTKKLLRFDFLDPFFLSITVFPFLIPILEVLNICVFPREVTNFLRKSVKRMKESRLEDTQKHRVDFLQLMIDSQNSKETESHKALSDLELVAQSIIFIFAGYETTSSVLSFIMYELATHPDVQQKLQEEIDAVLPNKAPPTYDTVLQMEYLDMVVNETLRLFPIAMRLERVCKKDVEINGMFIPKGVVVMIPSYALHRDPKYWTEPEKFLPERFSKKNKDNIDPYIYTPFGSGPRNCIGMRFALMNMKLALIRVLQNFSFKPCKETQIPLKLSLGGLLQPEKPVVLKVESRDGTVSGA

COc1cc(Sc2c(-c3ccncc3)[nH]c3ccccc23)cc(OC)c1OC
inhibition at 1 µM (CYP3A4): 58%
inhibition (Tubulin (Homo sapiens)): 91%
inhibition at 1 µM (CYP2D6): 43.1%
inhibition at 1 µM (CYP1A2): 14.5%
inhibition at 1 µM (CYP2C9): 100%
inhibition at 1 µM (CYP2C19): 100%

COc1cc(Sc2c(-c3ccc(F)cc3)[nH]c3ccccc23)cc(OC)c1OC
inhibition (Tubulin (Homo sapiens)): 74%

N#CC(C#N)=NNc1cccc(Cl)c1 [CARBONYL CYANIDE M-CHLOROPHENYLHYDRAZONE]
Activity (U-87 MG): 50%

COc1cc(C(=O)c2c(-c3ccco3)[nH]c3ccccc23)cc(OC)c1OC
inhibition (Tubulin (Homo sapiens)): 78%

CC[C@]1(O)C[C@@H]2CN(CCc3c([nH]c4ccccc34)[C@@](C(=O)OC)(c3cc4c(cc3OC)N(C)[C@H]3[C@@](O)(C(=O)OC)[C@H](OC(C)=O)[C@]5(CC)C=CCN6CC[C@]43[C@@H]65)C2)C1 [VINBLASTINE]
IC50 (A549): 20 nM
IC50 (HCT-15): 24 nM
IC50 (HeLa): 10 nM
IC50 [1]: 144 nM
IC50 (HT-29): 30 nM
IC50 (HCT-116): 3 nM

COc1cc(Sc2c(-c3cccnc3)[nH]c3ccccc23)cc(OC)c1OC
inhibition at 1 µM (CYP3A4): 76.4%
inhibition (Tubulin (Homo sapiens)): 88%
inhibition at 1 µM (CYP1A2): 23.4%
inhibition at 1 µM (CYP2C9): 102%
inhibition at 1 µM (CYP2C19): 84.9%

COc1cc(Sc2c(-n3cncn3)[nH]c3ccccc23)cc(OC)c1OC
inhibition at 1 µM (CYP3A4): 51.4%
inhibition (Tubulin (Homo sapiens)): 83%
inhibition at 1 µM (CYP2D6): < 5%
inhibition at 1 µM (CYP1A2): < 5%
inhibition at 1 µM (CYP2C9): 93.1%
inhibition at 1 µM (CYP2C19): 83.9%

COc1cc(Sc2c(-c3ccccc3F)[nH]c3ccccc23)cc(OC)c1OC
inhibition (Tubulin (Homo sapiens)): 74%

COc1cc(Sc2c(-c3cccc(F)c3)[nH]c3ccccc23)cc(OC)c1OC
inhibition (Tubulin (Homo sapiens)): 75%

COc1cc(Sc2c(-n3ccnc3)[nH]c3ccccc23)cc(OC)c1OC
inhibition at 1 µM (CYP3A4): 94.5%
inhibition (Tubulin (Homo sapiens)): 92%
inhibition at 1 µM (CYP2D6): 10.6%
inhibition at 1 µM (CYP1A2): 22.9%
inhibition at 1 µM (CYP2C9): 95.9%
inhibition at 1 µM (CYP2C19): 82.5%

COc1cc(Sc2c(-c3cc[nH]n3)[nH]c3ccccc23)cc(OC)c1OC
inhibition (Tubulin (Homo sapiens)): 78%

CC(=O)O[C@H]1C(=O)[C@@]2(C)[C@H]([C@H](OC(=O)c3ccccc3)[C@]3(O)C[C@H](OC(=O)[C@H](O)[C@@H](NC(=O)c4ccccc4)c4ccccc4)C(C)=C1C3(C)C)[C@]1(OC(C)=O)CO[C@@H]1C[C@@H]2O [PACLITAXEL]
IC50 (HCT-15): 90 nM

COc1cc(Sc2c(-c3nccs3)[nH]c3ccccc23)cc(OC)c1OC
inhibition (Tubulin (Homo sapiens)): 72%

COc1cc(C(=O)c2c(-c3ccc[nH]3)[nH]c3ccccc23)cc(OC)c1OC
inhibition (Tubulin (Homo sapiens)): 79%

COc1cc(C(O)c2c(-c3cc[nH]c3)[nH]c3ccccc23)cc(OC)c1OC (stereo not drawn)
inhibition (Tubulin (Homo sapiens)): 70%

COc1cc(C(=O)c2c(-c3cc[nH]c3)[nH]c3ccccc23)cc(OC)c1OC
inhibition (Tubulin (Homo sapiens)): 71%

CCC1=C[C@@H]2CN(C1)Cc1c([nH]c3ccccc13)[C@@](C(=O)OC)(c1cc3c(cc1OC)N(C)[C@H]1[C@@](O)(C(=O)OC)[C@H](OC(C)=O)[C@]4(CC)C=CCN5CC[C@]31[C@@H]54)C2 [VINORELBINE]
IC50 (NCI/ADR-RES): 5000 nM

COc1cc(C(=O)c2c(-c3ccoc3)[nH]c3ccccc23)cc(OC)c1OC
inhibition (Tubulin (Homo sapiens)): 77%

COc1cc(Sc2c(-c3cn[nH]c3)[nH]c3ccccc23)cc(OC)c1OC
inhibition (Tubulin (Homo sapiens)): 81%
